According to ChEMBL document CHEMBL4513160, “CO-ADD screening of MMV (CH) - Small Polar Library”:
In brackets after ≈: the same amount, converted by molar mass.

Experiments:
Pseudomonas aeruginosa [1] = assay: Antibacterial activity against Pseudomonas aeruginosa PAO397 [PAO1 d(mexAB-oprM) d(mexCD-oprJ) d(mexEF-oprN) d(mexJKL) d(mexXY) d(opmH)] (CO-ADD:GN_211); MIC in CAMBH media using NBS plates, by OD(600); assay type: functional; details: ASSAY_TEST Inhibition of Bacterial Growth, detection method Absorption (OD600), MEDIA CAMHB, plate type 384well, CORNING #3640, time 18 hr
Pseudomonas aeruginosa [2] = assay: microbe, parasite or virus in culture; details: ATCC 27853, 18 h, ASSAY_TEST Inhibition of Bacterial Growth, detection method Absorption (OD600), MEDIA CAMHB, plate type 384well, NBS, CORNING #3640
Description: Antibacterial activity against Pseudomonas aeruginosa ATCC 27853 (CO-ADD:GN_042); MIC in CAMBH media using NBS plates, by OD(600)

Acinetobacter baumannii = assay: microbe, parasite or virus in culture; details: ATCC 19606, 18 h, ASSAY_TEST Inhibition of Bacterial Growth, detection method Absorption (OD600), MEDIA CAMHB, plate type 384well, NBS, CORNING #3640
Description: Antibacterial activity against Acinetobacter baumannii ATCC 19606 (CO-ADD:GN_034); MIC in CAMBH media using NBS plates, by OD600

SMILES | MIC (Pseudomonas aeruginosa [1]) | MIC (Pseudomonas aeruginosa [2]) | MIC (Acinetobacter baumannii)
Cn1ccnc1-c1noc(NC(=O)c2ccccn2)n1 | > 300 µM | > 300 µM | > 300 µM
O=C(CSc1ncn[nH]1)Nc1ncc(Br)s1 | > 300 µM | > 300 µM | > 300 µM
O=C1c2ccccc2OCC1CN1CCOCC1 (stereo not given) | > 300 µM | > 300 µM | > 300 µM
CNCCC1CCN(c2ccncc2)CC1 | > 300 µM | > 300 µM | > 300 µM
O=C(c1cnsn1)N1CCN(c2ccccn2)CC1 | > 300 µM | > 300 µM | > 300 µM
Cc1ccc(C2(O)CCNC2)cc1 (stereo not given) | > 300 µM | 300 µM (≈ 53.2 µg/mL) | > 300 µM
N[C@@H]1CCCc2c(F)cc(F)cc21 | > 300 µM | > 300 µM | > 300 µM
CCOc1ncc(C(=O)NCC(C)(O)C(C)C)cc1Cl (stereo not given) | > 300 µM | > 300 µM | > 300 µM
O=C(NCCO)Nc1nc2ccccc2s1 | > 300 µM | > 300 µM | > 300 µM
CNC(=O)Cn1cc(-c2cccc3cnccc23)cn1 | > 300 µM | > 300 µM | > 300 µM
